Results published in publication PMC9037180, “Ligand-based design and synthesis of N'-Benzylidene-3,4-dimethoxybenzohydrazide derivatives as potential antimicrobial agents; evaluation by in vitro, in vivo, and in silico approaches with SAR studies” (Journal of Enzyme Inhibition and Medicinal Chemistry, 2022).
Converted amounts (≈) assume the structure as drawn. Read-outs that look alike come from different tables or passages of the source.

How the values were obtained:
[1] = test system: S. typhi clinical isolate; assay: Minimal inhibitory concentration (MIC), broth dilution; type: cell-based
[2] = test system: C. albicans MTCC183; assay: as above; type: cell-based
Description: In vitro evaluation for antifungal activities regarding target compounds (4a–j) as well as reference drug, was done against C. albicans MTCC183 through the zone inhibition technique using well diffusion agar assay in addition to MIC.

[3] = test system: S. aureus ATCC 6538; assay: as above
[4] = test system: S. typhi; assay: Biochemical analysis in S. typhi infected rats; type: in vivo
Protocol: The compounds 4h and 4j were dissolved in DMSO (dimethyl sulfoxide) then further dilutions were made by using sterile distilled water. The doses of both candidates were calculated according to the method given by Paget and Barnes[60]. Sterile distilled water, DEMSO, and investigated compounds (4h (1.9 and 3.8 mg/kg) and 4j (1.9 and 3.8 mg/kg)) were injected in a volume of 4 ml/kg[61]. The experiment lasts two weeks, the 1st week for induction of infection in the infected groups and the 2nd week for the administration of the compounds in all groups. […]
ALT and AST were determined[66] using commercial kits obtained from Diamond Diagnostics, Egypt.
Serum urea was determined by using the modified Berthelot–Searcy method. Serum creatinine activity was also assessed by using the application of Jaffe’s reaction.
Serum levels of the pro-inflammatory cytokine, TNF-α, were determined by the quantitative enzyme immunoassay (EIA) kit purchased from R&D Systems (USA) according to the method of Howard and Harada[69], while that of anti-inflammatory cytokine IL-10 was according to Croft et al.. […]

[5] = H&E histological examination of liver and kidney, uninfected treated rats; type: in vivo; settings: for liver histological structure (H&E): 1.9 and 3.8 mg/kg IP daily for one week; for kidney histological structure (H&E): low dose and high dose (1.9 and 3.8 mg/kg IP)
Protocol: (§1) Rats were divided randomly into equal fifteen groups, each containing 9 rats as follows: • Group 1: Rats were kept on standard laboratory chow and water ad libitum to serve as a control. • Group 2: Rats have injected IP with sterile distilled water (4ml/kg) daily for one week to serve as a control. • Group 3: Rats have injected IP with DEMSO (dimethyl sulfoxide) (4 ml/kg) daily for one week to serve as a control. • Group 4: Rats have injected IP with 4h (1.9 mg/kg) daily for one week. • Group 5: Rats have injected IP with 4h (3.8 mg/kg) daily for one week. • Group 6: Rats have injected IP with 4i (1.9 mg/kg) daily for one week. • Group 7: Rats have injected IP with 4i (3.8 mg/kg) daily for one week. • Group 8: Rats were infected by a single IM injection of S. aureus strain [1.0 ml) 1 × 10^7) colony-forming units]. • Group 9: Rats have injected IP with 4h (1.9 mg/kg) daily for one week on the 7th day after induction of infection by a single IM injection of S. aureus strain [1.0 ml (1 × 10^7) colony-forming units. • Group 10: Rats have injected IP with 4h (3.8 mg/kg) daily for one week on the 7th day after induction of infection by a single IM injection of S. aureus strain [1.0 ml (1 × 10^7) colony-forming units]. • Group 11: Rats were infected by a single IM injection of S. typhi strain [1.0 ml (1 × 10^7) colony forming units). • Group 12: Rats have injected IP with 4h (1.9 mg/kg) daily for one week. on the 7th day after induction of infection by a single IM injection of S. typhi strain [1.0 ml (1 × 10^7) colony-forming units]. • Group 13: Rats have injected IP with 4h (3.8 mg/kg) daily for one week on the 7th day after infection by a single IM injection of S. typhi strain [1.0 ml (1 × 10^7) colony-forming units]. • Group 14: Rats have injected IP with 4i (1.9 mg/kg) daily for one week. on the 7th day after induction of infection by a single IM injection of S. typhi strain [1.0 ml (1 × 10^7) colony-forming units]. • Group 15: Rats have injected IP with 4i (3.8 mg/kg) daily for one week. on the 7th day after induction of infection by a single IM injection of Salmonella strain [1.0 ml (1 × 10^7) colony-forming units].
(§2) At the end of the experiment, the animals were euthanized through cervical dislocation. After that, the liver and kidney were dissected for histological study. The procedure for histological preparations was described by Bancroft and Stevens[73]. Briefly, liver and kidney tissues were sliced to 3–4 mm thick, fixed in 10% neutral buffered formalin (10% NBF), dehydrated in graded concentrations of ethanol, cleared in xylene, and embedded in paraffin. The paraffin blocks were sectioned with a microtome at (4–6 μm) thickness and dyed with H & E stain to study the general tissue structure.

[6] = test system: A. baumanii ATCC 19606; assay: Minimal inhibitory concentration (MIC), broth dilution
[7] = test system: S. typhi; assay: H&E histological examination of liver and kidney, S. typhi infected rats; type: in vivo
Protocol: as §1, §2

[8] = test system: E. coli; assay: Minimal bactericidal concentration (MBC); type: cell-based
Protocol: (§3) After determining the MIC for the target compounds, the minimal bactericidal concentration (MBC) for each compound that is required to kill each one of the above-mentioned microorganisms was assessed.

[9] = test system: S. aureus; assay: Minimal bactericidal concentration (MBC); type: cell-based
Protocol: as §3

[10] = test system: E. coli ATCC 25922; assay: Minimal inhibitory concentration (MIC), broth dilution
[11] = test system: E. faecalis ATCC 29212; assay: as above
[12] = test system: Acientobacter sensitive; assay: as above
[13] = test system: P. aeruginosa ATCC10145; assay: as above
[14] = first dose (1.9 mg/kg IP daily for one week)
[15] = second dose (3.8 mg/kg IP daily for one week)

Work on `COc1ccc(C(=O)NN=Cc2ccc3ccccc3n2)cc1OC` [Compound 4i, N'-(quinolin-2-ylmethylene)-3,4-dimethoxybenzohydrazide] yielded an MIC ([1]; Salmonella enterica, TYPHI) of 93.4 µM (≈ 31.3 µg/mL), an MIC ([2]; Candida albicans, MTCC183) of 23.3 µM (≈ 7.81 µg/mL) and an MIC ([3]; Staphylococcus aureus, ATCC6538) of 46.5 µM (≈ 15.6 µg/mL). The “renal and liver functions, oxidative stress and inflammatory markers (urea, creatinine, ALT, AST, GSH, MDA, TNF-α, IL-10)” value (shortened to “renal and liver functions”) [4, 14] was “normalisation of urea, ALT, and AST”, the “renal and liver functions” value [4, 15] was “returning of urea, creatinine, ALT, and AST” and the “liver histological structure (H&E)” value [5] was “normal histological structure”. For the same molecule, the “kidney histological structure (H&E)” value [5] was “histological structure similar to those of the control groups”, the MIC ([6]; Acinetobacter baumannii, ATCC19606) was 11.6 µM (≈ 3.9 µg/mL) and the “kidney pathological changes (H&E)” value ([7]; high dose (3.8 mg/kg)) was “marked improved renal tissue”. The “liver pathological changes (H&E)” value ([7]; high dose (3.8 mg/kg)) was “marked improvement in the pathological changes”, the “kidney pathological changes (H&E)” value ([7]; low dose (1.9 mg/kg)) was “improved pathological changes” and the “liver pathological changes (H&E)” value ([7]; low dose (1.9 mg/kg)) was “improved pathological changes”. The MBC ([8]; Escherichia coli) was 186 µM (≈ 62.5 µg/mL), the MBC ([9]; Staphylococcus aureus) was 186 µM (≈ 62.5 µg/mL) and the MIC ([10]; Escherichia coli, ATCC25922) was 23.3 µM (≈ 7.81 µg/mL). It also gave an MIC ([11]; Enterococcus faecalis, ATCC29212) of 93.4 µM (≈ 31.3 µg/mL), an MIC ([12]; Acinetobacter baumannii) of 46.5 µM (≈ 15.6 µg/mL) and an MIC ([13]; Pseudomonas aeruginosa, ATCC10145) of 186 µM (≈ 62.5 µg/mL).
In the case of “N'-((3a,7a-dihydro-1H-indol-3-yl)methylene)-3,4-dimethoxybenzohydrazide [Compound 4h]”, the MIC ([1]; S. typhi (ST)) is reported as 12.07 µM, the MIC ([2]; C. albicans (CA), read-out: MIC) is reported as 386.80 µM and the MIC ([3]; S. aureus (SA)) is reported as 5.88 µM. The “renal and liver functions” value [4, 14] was “significant improvement in all measured parameters”, the “renal and liver functions” value [4, 15] was “returning of urea, creatinine, AST, and TNF-α to normal levels” and the “liver histological structure (H&E)” value [5] was “normal histological structure”. For the same molecule, the “kidney histological structure (H&E)” value [5] was “histological structure similar to those of the control groups”, the MIC ([6]; Acientobacter ATCC 19606 (A A)) was 48.28 µM and the “kidney pathological changes (H&E)” value ([7]; high dose (3.8 mg/kg)) was “marked improved renal tissue”. For the same molecule, the “liver pathological changes (H&E)” value ([7]; high dose (3.8 mg/kg)) was “marked improvement in the pathological changes”, the “kidney pathological changes (H&E)” value ([7]; low dose (1.9 mg/kg)) was “improved pathological changes” and the “liver pathological changes (H&E)” value ([7]; low dose (1.9 mg/kg)) was “improved pathological changes”. The MBC ([8]; E. coli) was 96.87 µM, the MBC ([9]; S. aureus) was 96.87 µM and the MIC ([10]; E. coli (EC)) was 48.28 µM. The MIC ([11]; E. faecalis (EF)) was 96.87 µM, the MIC ([12]; Acientobacter sensitive (AS)) was 24.17 µM and the MIC ([13]; P. auriginosa (PA)) was 193.40 µM.
